We go through one compound from patent publication US11897881B1, “Substituted pyrido[3,4-b]indole-3-carboxylic acids as CK2 inhibitors” (KING FAISAL UNIVERSITY, priority 2023, dated 2024).

One assay relates to PC3 (prostate). Kind of assay: In vitro cytotoxic activity assay (MTT), PC3. It is filed as cell-based. As to conditions: Homo sapiens, Prostate cell; PC3 (prostate) cells, exposed for 96 hours; read-out: IC50, 50% inhibition of cell proliferation. The protocol:
(§1) Compounds 1-15 were screened for their in vitro cytotoxic activity utilizing a 3-(4,5-dimethyl-thiazol-2-yl)-2,5-diphenyltetrazolium bromide (MTT) assay against selected cancer human cell lines consisting of PC3 (prostate), HCT116 (colon), A375 (melanoma), H1299 (lung), MIAPaCa-2 (pancreas), HL60 (leukemia), MCF7 (breast), MDA-MB-231 (breast) (T. Mosmann, J. Immunol. Meth., 1983, 65, 55-63). The cells were cultured at 37° C. in RMPI1640 medium supplemented with 10% fetal bovine serum, 50 IU/mL penicillin, and 50 μg/mL streptomycin in a 5% CO2 incubator. All cells were sub-cultured 3 times/week by trypsinisation. Viable cells were seeded and allowed to adhere for 12 h before a test drug was added in 96-well plates at an initial density of 1.0×10^5 cells/mL. Tumour cell lines were separately exposed to various concentrations of the tested compounds followed by incubation at a temperature of 37° C. during 96 h inside a medium of fresh RMPI 1640. Cells were subsequently incubated at 37° C. using MTT at 0.5 mg/mL during 4 h. After removal of supernatant, formazan crystals were dissolved in isopropanol and the optical density was measured at 570 nm. CX-4945 was used as a positive control.

The test system of a further assay is HCT116 (colon). Kind of assay: In vitro cytotoxic activity assay (MTT), HCT116. As to conditions: Homo sapiens, HCT-116; HCT116 (colon) cells, exposed for 96 hours; read-out: IC50, 50% inhibition of cell proliferation. Format: cell-based. The protocol: as §1
The test system of the next assay is A375 (melanoma). Kind of assay: In vitro cytotoxic activity assay (MTT), A375. It is filed as cell-based. As to conditions: Homo sapiens, A-375; A375 (melanoma) cells, exposed for 96 hours; read-out: IC50, 50% inhibition of cell proliferation. The protocol:
as §1

A further assay deals with H1299 (lung). Briefly: In vitro cytotoxic activity assay (MTT), H1299. It is filed as cell-based. As to conditions: Homo sapiens, NCI-H1299; H1299 (lung) cells, exposed for 96 hours; read-out: IC50, 50% inhibition of cell proliferation. The protocol: as §1
The next assay has as its system MIAPaCa-2 (pancreas). Briefly: In vitro cytotoxic activity assay (MTT), MIAPaCa-2. The conditions noted are these: Homo sapiens, MIA PaCa-2; MIAPaCa-2 (pancreas) cells, exposed for 96 hours; read-out: IC50, 50% inhibition of cell proliferation. It is filed as cell-based. The protocol:
as §1

Another assay deals with HL60 (leukemia). Briefly: In vitro cytotoxic activity assay (MTT), HL60. Format: cell-based. As to conditions: Homo sapiens, HL-60; HL60 (leukemia) cells, exposed for 96 hours; read-out: IC50, 50% inhibition of cell proliferation. The protocol: as §1
The next assay concerns MCF7 (breast). Briefly: In vitro cytotoxic activity assay (MTT), MCF7. It is filed as cell-based. As to conditions: Homo sapiens; MCF7 (breast) cells, exposed for 96 hours; read-out: IC50, 50% inhibition of cell proliferation. The protocol:
as §1

A further assay has as its system MDA-MB-231 (breast). Kind of assay: In vitro cytotoxic activity assay (MTT), MDA-MB-231. Format: cell-based. The conditions noted are these: Homo sapiens; MDA-MB-231 (breast) cells, exposed for 96 hours; read-out: IC50, 50% inhibition of cell proliferation. As for the experimental part: as §1
In assay [1] the target is T1, recombinant human CK2 (RRββ-holoenzyme) (Homo sapiens, UniProt P68400).
T1 construct: purchased Millipore
Briefly: CK2 Kinase Assay (33P-ATP, filter plate). It is filed as biochemical. The conditions noted are these: final ATP concentration 15 μM, 10 min at 30° C., eight concentrations; read-out: protein kinase CK2 IC50. As for the experimental part: CK2 Kinase Assay was conducted using the protocol as described in Pierre F. et al; J. Med. Chem. 2011, 54, 635-654. The tested compounds in aqueous solution were added at a volume of 10 μL to a reaction mixture comprising 10 μL of assay dilution buffer (ADB; 20 mM MOPS, pH 7.2, 25 mM β-glycerol phosphate, 5 mM EGTA, 1 mM sodium orthovanadate, and 1 mM dithiothreitol), 10 μL of substrate peptide (RRRDDDSDDD, dissolved in ADB at a concentration of 1 mM), 10 μL of recombinant human CK2 (RRββ-holoenzyme, 25 ng dissolved in ADB; Millipore). Reactions were initiated by the addition of 10 μL of ATP solution (90% 75 mMMgCl2, 75 μM ATP (final ATP concentration:15 μM) dissolved in ADB; 10% [γ-33P] ATP (stock 1 mCi/100 μL; 3000 Ci/mmol (Perkin-Elmer) and maintained for 10 min at 30° C. The reactions were quenched with 100 μL of 0.75% phosphoric acid and then transferred to and filtered through a phosphor cellulose filter plate (Millipore). After washing each well five times with 0.75% phosphoric acid, the plate was dried under vacuum for 5 min and, following the addition of 15 μL of scintillation fluid to each well, the residual radioactivity was measured using a Wallac luminescence counter. The IC50 values were derived from eight concentrations of test inhibitors.

T1 sequence (P68400 whole entry): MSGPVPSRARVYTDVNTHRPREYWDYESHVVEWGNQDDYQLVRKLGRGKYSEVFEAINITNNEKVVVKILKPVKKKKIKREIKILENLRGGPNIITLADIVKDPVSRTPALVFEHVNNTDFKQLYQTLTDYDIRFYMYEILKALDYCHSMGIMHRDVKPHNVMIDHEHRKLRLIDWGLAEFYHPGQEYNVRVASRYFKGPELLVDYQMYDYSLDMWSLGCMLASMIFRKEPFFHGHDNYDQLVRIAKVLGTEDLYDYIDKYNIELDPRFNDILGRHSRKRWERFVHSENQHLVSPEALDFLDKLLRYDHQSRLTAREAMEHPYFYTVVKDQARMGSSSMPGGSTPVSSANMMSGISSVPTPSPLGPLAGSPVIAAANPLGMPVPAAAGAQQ
T1 sequence (P67870 whole entry partner): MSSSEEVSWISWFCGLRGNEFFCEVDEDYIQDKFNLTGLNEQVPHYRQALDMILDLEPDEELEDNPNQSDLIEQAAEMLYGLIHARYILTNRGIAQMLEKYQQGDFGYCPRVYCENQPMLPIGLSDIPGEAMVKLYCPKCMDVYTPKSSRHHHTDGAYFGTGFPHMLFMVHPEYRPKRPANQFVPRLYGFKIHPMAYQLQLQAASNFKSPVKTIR

On to `O=C(O)c1cc2c([nH]c3cc(O)ccc32)c(Nc2cccc(Cl)c2)n1` [Compound 1, 1-((3-chlorophenyl)amino)-7-hydroxy-9H-pyrido[3,4-b]indole-3-carboxylic Acid], for which the IC50 in the assay on PC3 (prostate) is 1200 nM; with HCT116 (colon) it was 1600 nM; in the assay on A375 (melanoma), 5700 nM; in the assay on H1299 (lung), 1800 nM; in the assay on MIAPaCa-2 (pancreas), 3300 nM; with HL60 (leukemia), 4100 nM. Besides, the IC50 in the assay on MCF7 (breast) came to 3200 nM; in the assay with MDA-MB-231 (breast) it was 2500 nM; in assay [1], 165 nM.
